Reference: patent US9023851B2 (Merck Patent GmbH, priority 2010, dated 2015)
Blank lines part the entries; values can stand above or below the molecule they belong to.

Experiments:
Syk = target: T1, Syk (Homo sapiens, UniProt P43405); assay: Syk enzyme assay (flash plate / Caliper mobility shift); format: biochemical
T1 construct: purchased BPS Bioscience, CA, USA
How it was run: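 Flashplate format used 2.5 nM SYK, 400 nM biotinylated peptide and 10 µM ATP with 33P tracer, pH 7.5, 1 h at 30 °C, read by radioactivity. Caliper format ran 90 min at 25 °C in HEPES pH 7.5, reading percent peptide conversion by mobility shift. IC50s came from dose-response curves.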

ZAP-70 = target: T2, ZAP-70 (Homo sapiens, UniProt P43403); assay: Zap70 enzymatic assay (Caliper LifeSciences technology); format: biochemical
T2 construct: purchased BPS Bioscience, CA, USA
T2 sequence (P43403 1-619): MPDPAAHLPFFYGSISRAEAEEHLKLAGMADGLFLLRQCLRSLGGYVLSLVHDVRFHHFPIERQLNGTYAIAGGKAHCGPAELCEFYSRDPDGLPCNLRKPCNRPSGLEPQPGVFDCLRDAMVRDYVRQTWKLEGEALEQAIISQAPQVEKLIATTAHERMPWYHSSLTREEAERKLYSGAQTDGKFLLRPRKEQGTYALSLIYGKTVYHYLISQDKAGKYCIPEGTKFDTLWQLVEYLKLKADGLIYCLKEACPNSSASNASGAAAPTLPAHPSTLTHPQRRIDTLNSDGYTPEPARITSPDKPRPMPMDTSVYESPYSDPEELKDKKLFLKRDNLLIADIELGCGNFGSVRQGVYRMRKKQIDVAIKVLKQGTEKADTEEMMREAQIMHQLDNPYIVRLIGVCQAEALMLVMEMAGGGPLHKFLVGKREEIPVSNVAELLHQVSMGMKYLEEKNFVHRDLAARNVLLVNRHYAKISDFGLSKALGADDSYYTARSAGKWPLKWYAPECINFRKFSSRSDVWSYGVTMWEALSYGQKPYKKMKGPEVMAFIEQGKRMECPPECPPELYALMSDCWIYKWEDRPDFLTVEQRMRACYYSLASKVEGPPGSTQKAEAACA
How it was run: (§1)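 Off-chip mobility-shift assay quantifying conversion of a fluorescent peptide substrate to phosphorylated product. Reactions in 100 mM HEPES pH 7.5, 1 mM DTT, 1 mM MgCl2, 0.015% Brij-35, 90 min at 25 C, stopped with EDTA. IC50 from sigmoidal fit of percent conversion versus inhibitor concentration.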

BTK = target: T3, BTK (Homo sapiens, UniProt Q06187); assay: BTK enzymatic assay (Caliper LifeSciences technology); format: biochemical
T3 construct: purchased Carna Bioscience, Kobe, Japan
Experimental: (§2) Enzymatic Assays Using the Caliper LifeSciences Technology
(§3) The assays described here are performed on the Caliper Life Sciences LC3000 system This technology provides data on enzyme activity via measurement of the relative amounts of phosphorylated or unphosphorylated fluorescently labelled substrate peptide at the end of an enzymatic reaction. These different states of peptide are resolved by applying a potential difference across the sample. The presence of the charged phosphate group on the product (as opposed to the substrate) causes a different peptide mobility between the two peptides. This is visualized by excitation of the fluorescent label on the substrate and product peptides and represented as peaks within the analysis software.
(§4) In order to measure inhibitor activity of kinase inhibitors on this technology, a TTP Mosquito liquid handling instrument is used to place 0.25 ul of the appropriate concentration of inhibitor in 100% DMSO (for a dose response curve calculation) into each well of a 384-well plate. To this reaction components are added to a final volume of 25 ul. The table below indicates the sequences and concentrations for the assays described in this report. Standard components are 1 mM DTT (Sigma, D0632), 1 mM MgCl2 (Sigma, M1028), 100 mM HEPES pH 7.5 (Calbiochem, 391338), 0.015% Brij-35 (Sigma, B4184).
(§5) The reaction is incubated for 90 min at 25 C, and then stopped by the addition of 70 ul of Stop buffer (100 mM HEPES pH 7.5, 0.015% Brij-35, 10 mM EDTA (Sigma, E7889)).
(§6) The plate is read on a Caliper LC 3000 in an Off-Chip mobility shift assay format, on a 12-sipper chip. Unphosphorylated substrate and phosphorylated product peptide resolve as separate peaks allowing direct measurement of percentage of conversion of substrate to product. The percent conversion can be plotted against concentration of inhibitor to produce a sigmoidal dose response curve, from which an IC50 can be calculated using GeneData Condoseo or a similar product. Cellular activity assays

KDR = target: T4, KDR (Homo sapiens, UniProt P35968); assay: KDR enzymatic assay (Caliper LifeSciences technology); format: biochemical
T4 construct: purchased BPS Bioscience, CA, USA
How it was run: as §1

GCN2 = GCN2 (Homo sapiens, UniProt Q9P2K8); assay: GCN2 kinase TR-FRET (Lanthascreen) assay; format: biochemical
Source text: GCN2: Assay Principle & Conditions
This assay can quantificate the activity of the serin kinase GCN2 (general control non-derepressible-2).
This kinase is involved in the stress metabolism of cells. It is activated upon starvation (amino acid depletion). Its natural substrate is eIF2a (eukaryotic initiation factor 2 alpha subunit), a translation factor, which gets activated (phosphorylated) by GCN2 in case of an amino acid bottleneck in the cells. This in turn leads to a halt of the protein synthesis. Inhibition of GCN2 results in stopping this mechanism: The cell can not stop protein production upon “starvation” stress.
The assay is run in two steps: the enzymatic reaction and the detection step. In the first step GCN2 is incubated with 10 μM ATP and 80 nM of the GFP-labelled substrate eIF2alpha at room temperature.
The enzymatic reaction is stopped by addition of EDTA. The amount of phosphorylated eIF2alpha is determined by TR-FRET (Lanthascreen): A complex is formed consisting of antibody and GFP labelled phospho-eIF2a, which allows a FRET upon exitation at 340 nm.
The GCN2-activity is directly proportional to the ratio of fluorescence units at the emission wavelengthh 520 nm (phosphopeptide-sensitive wavelength=emission of GFP) to the units at 495 nm (reference wavelength=emission of Terbium-chelate).
Assay Procedure • 4 uL enzyme solution (in assay buffer) • 1.5 uL compound (in cmpd dilution buffer/6.3% DMSO) • Incubation 20 min at RT • 4 uL substrate/ATP mix (in assay buffer) • Incubation 90 min at RT • 10 uL stop/detection mix (in antibody dilution buffer) • Incubation 60 min at RT • Readout Lanthascreen 340/495/5204

Ramos cells = assay: BCR crosslinking-induced BLNK phosphorylation (BLNK cell assay); format: cell-based; details: Homo sapiens
Experimental: 1. BCR Crosslinking-Induced BLNK Phosphorylation
Ramos cells incubated overnight in IMDM medium containing 5% FCS were resuspended in IMDM medium without serum (3.3×10^6 cells/ml). 90 μl of cell suspension (300′000 cells) were incubated with 10 μl of SYK inhibitors (in 3% DMSO) for 20 minutes at 37° C., in 96 well plates. After preincubation with inhibitors, cells were activated with 10 μg/ml of goat antihuman anti-IgM for 10 minutes at 37° C. After stimulation, cells were fixed by addition of 80 μl of 4% paraformaldehyde followed by a 10 minutes incubation at RT and […] in 0.1% Triton X-100 in PBS. BLNK phosphorylation was detected by flow cytometry after staining of the cells with anti-BLNK-pY84-PE antibodies from BD pharmingen, for 45 minutes at RT. […]

Src = target: T5, Src (Homo sapiens, UniProt P12931); assay: cSrc enzymatic assay (Caliper LifeSciences technology); format: biochemical
T5 construct: purchased Carna Bioscience, Kobe, Japan
Experimental: as §2, §3, §4, §5, §6

[1] = murine model of RA, cited from earlier work
[2] = RA Phase II studies in humans; cited from earlier work
3LL lung carcinoma = details: s.c. 3LL lung carcinoma in mice; cited from earlier work

T5 sequence (P12931 whole entry): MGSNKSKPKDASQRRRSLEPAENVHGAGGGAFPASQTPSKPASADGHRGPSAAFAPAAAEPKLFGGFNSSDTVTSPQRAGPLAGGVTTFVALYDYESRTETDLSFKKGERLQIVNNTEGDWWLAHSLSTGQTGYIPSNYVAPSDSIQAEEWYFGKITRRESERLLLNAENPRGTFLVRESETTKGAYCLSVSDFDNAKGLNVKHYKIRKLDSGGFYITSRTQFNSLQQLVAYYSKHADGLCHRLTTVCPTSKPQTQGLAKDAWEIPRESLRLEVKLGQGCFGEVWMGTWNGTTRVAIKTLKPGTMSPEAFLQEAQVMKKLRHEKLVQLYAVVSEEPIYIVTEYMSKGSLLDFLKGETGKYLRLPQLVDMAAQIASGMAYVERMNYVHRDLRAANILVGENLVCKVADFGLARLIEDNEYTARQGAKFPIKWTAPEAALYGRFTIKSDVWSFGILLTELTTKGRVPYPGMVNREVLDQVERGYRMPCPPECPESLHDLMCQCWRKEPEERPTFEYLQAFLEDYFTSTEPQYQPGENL
Sequence of GCN2 (Q9P2K8 whole entry, species assumed): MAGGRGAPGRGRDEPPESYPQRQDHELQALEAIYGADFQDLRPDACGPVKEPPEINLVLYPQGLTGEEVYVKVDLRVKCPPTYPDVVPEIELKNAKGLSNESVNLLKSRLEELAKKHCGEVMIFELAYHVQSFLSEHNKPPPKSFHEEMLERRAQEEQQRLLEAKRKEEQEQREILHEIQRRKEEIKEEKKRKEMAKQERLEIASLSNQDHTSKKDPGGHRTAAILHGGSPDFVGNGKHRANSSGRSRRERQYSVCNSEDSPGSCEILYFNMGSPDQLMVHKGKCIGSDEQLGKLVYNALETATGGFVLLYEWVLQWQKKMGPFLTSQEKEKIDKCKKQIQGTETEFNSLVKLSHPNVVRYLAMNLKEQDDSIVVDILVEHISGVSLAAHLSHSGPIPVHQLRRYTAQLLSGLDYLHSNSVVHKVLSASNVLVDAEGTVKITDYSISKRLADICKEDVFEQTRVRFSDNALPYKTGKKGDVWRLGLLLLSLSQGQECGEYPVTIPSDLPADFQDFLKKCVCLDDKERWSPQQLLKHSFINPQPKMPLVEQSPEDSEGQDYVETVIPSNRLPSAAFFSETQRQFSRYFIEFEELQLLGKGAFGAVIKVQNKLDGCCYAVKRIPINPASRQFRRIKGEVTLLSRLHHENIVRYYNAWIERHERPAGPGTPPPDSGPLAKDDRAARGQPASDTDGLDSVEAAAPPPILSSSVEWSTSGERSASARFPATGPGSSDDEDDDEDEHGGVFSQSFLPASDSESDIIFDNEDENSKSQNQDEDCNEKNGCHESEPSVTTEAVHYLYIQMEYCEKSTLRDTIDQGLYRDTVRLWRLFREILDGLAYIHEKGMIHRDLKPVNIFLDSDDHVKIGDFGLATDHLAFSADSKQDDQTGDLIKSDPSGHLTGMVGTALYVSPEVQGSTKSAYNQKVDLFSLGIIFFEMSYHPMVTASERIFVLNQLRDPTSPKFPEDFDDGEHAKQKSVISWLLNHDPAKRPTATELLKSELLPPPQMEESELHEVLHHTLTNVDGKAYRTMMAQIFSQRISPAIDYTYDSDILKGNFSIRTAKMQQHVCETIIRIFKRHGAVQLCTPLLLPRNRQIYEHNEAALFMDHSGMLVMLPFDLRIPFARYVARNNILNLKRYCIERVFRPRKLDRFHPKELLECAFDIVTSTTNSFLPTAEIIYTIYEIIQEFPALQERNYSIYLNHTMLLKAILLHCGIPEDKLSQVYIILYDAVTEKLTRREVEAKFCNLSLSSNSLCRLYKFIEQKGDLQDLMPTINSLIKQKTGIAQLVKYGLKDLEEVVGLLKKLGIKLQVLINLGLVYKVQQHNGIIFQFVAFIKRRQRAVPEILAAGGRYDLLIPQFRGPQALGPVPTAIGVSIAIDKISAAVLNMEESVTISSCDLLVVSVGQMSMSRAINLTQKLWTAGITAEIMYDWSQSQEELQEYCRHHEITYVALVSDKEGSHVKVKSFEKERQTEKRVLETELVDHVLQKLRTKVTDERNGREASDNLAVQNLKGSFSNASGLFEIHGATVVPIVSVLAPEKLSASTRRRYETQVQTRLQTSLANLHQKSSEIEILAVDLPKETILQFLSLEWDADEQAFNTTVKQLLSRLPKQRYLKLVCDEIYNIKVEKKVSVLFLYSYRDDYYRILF
T4 sequence (P35968 20-1356): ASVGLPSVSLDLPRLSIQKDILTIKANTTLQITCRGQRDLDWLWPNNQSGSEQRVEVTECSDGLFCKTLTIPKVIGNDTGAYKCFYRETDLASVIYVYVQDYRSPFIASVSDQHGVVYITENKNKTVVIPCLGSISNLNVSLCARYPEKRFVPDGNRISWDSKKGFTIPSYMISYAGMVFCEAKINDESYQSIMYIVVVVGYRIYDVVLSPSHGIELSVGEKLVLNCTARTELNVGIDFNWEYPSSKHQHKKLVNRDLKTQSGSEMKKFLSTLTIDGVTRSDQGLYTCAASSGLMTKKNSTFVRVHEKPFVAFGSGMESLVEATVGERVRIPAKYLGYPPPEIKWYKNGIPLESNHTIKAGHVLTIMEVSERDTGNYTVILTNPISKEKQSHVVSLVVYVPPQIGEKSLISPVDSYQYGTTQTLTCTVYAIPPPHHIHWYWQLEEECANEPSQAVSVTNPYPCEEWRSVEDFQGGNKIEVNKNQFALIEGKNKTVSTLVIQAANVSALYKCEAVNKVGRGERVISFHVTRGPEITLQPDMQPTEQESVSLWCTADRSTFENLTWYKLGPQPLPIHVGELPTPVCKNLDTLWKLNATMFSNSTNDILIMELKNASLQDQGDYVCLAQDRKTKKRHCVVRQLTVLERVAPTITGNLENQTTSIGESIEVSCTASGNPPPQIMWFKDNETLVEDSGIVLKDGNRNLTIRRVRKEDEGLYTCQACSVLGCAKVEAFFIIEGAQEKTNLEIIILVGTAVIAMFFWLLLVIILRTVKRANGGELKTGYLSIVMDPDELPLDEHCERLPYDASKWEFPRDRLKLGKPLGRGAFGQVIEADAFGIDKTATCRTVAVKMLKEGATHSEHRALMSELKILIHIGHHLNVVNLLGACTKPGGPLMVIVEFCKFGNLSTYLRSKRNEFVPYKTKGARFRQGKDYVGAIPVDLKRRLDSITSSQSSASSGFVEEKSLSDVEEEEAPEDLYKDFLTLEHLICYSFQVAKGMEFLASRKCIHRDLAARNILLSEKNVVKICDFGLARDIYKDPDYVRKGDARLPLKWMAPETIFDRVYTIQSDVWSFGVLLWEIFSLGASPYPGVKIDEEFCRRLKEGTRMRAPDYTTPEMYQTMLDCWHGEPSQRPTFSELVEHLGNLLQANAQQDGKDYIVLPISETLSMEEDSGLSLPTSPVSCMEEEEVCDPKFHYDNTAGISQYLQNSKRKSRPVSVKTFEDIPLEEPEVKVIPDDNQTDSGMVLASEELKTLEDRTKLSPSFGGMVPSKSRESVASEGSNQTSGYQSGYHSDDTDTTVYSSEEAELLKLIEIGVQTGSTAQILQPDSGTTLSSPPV
T3 sequence (Q06187 whole entry): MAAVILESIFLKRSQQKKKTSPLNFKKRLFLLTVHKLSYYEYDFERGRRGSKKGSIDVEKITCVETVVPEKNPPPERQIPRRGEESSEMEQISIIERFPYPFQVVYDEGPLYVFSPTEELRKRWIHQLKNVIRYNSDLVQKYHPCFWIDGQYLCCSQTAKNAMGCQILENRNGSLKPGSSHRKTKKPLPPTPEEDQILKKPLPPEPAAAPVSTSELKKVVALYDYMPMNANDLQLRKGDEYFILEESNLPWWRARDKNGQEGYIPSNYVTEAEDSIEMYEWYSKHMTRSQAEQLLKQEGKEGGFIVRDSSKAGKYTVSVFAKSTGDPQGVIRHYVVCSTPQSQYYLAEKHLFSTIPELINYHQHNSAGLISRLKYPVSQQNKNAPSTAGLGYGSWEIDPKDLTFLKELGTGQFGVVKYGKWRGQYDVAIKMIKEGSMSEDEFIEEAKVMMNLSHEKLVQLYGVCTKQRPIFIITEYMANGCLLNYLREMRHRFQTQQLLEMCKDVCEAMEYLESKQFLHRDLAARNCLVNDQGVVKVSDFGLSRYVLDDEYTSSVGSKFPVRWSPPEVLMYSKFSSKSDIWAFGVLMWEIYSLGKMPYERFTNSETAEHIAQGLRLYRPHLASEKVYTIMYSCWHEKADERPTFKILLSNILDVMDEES

Compound: c1ccc(Cn2ncc3ccc(Nc4nc5c(-c6nccs6)nccn5n4)cc32)cc1 [Example C24, (1-Benzyl-1H-indazol-6-yl)-(8-thiazol-2-yl-[1,2,4]triazolo[1,5-a]pyrazin-2-yl)-amine]
IC50 (Syk): 0.3 to 3 µM
IC50 (ZAP-70): 3 to 50 µM
IC50 (BTK): 3 to 50 µM

Compound: COc1cc(Nc2nc3c(-c4ccccc4)nccn3n2)cc(OC)c1 [Example C8, (3,5-Dimethoxy-phenyl)-(8-phenyl-[1,2,4]triazolo[1,5-a]pyrazin-2-yl)-amine]
IC50 (Syk): < 0.3 µM
IC50 (BTK): 3 to 50 µM
IC50 (KDR): < 0.3 µM

Compound: CN1CCN(c2ccc(Nc3nc4c(-c5cnn(C)c5)nccn4n3)cc2)CC1 [Example D18, [4-(4-Methyl-piperazin-1-yl)-phenyl]-[8-(1-methyl-1H-pyrazol-4-yl)-[1,2,4]triazolo[1,5-a]pyrazin-2-yl]-amine]
IC50 (Ramos cells): 3 to 50 µM
IC50 (Syk): < 0.3 µM
IC50 (ZAP-70): 3 to 50 µM
IC50 (KDR): 0.3 to 3 µM
IC50 (Src): 0.3 to 3 µM

Compound: O=C1Nc2cc(Nc3nc4c(-c5nccs5)nccn4n3)ccc2OC1(F)F [Example C6, 2,2-Difluoro-6-(8-thiazol-2-yl-[1,2,4]triazolo[1,5-a]pyrazin-2-ylamino)-4H-benzo[1,4]oxazin-3-one]
IC50 (Syk): 3 to 50 µM
IC50 (BTK): 3 to 50 µM
IC50 (KDR): 3 to 50 µM
IC50 (Src): 3 to 50 µM

Compound: COc1cc(Nc2nc3c(-c4cccnc4)nccn3n2)cc(OC)c1 [Example C19, (3,5-Dimethoxy-phenyl)-(8-pyridin-3-yl-[1,2,4]triazolo[1,5-a]pyrazin-2-yl)-amine]
IC50 (Ramos cells): 3 to 50 µM
IC50 (Syk): < 0.3 µM
IC50 (ZAP-70): 3 to 50 µM
IC50 (BTK): 3 to 50 µM
IC50 (KDR): 0.3 to 3 µM
IC50 (Src): 0.3 to 3 µM

Compound: CN1CCN(c2ccc(Nc3nc4c(-c5ccc6c(cnn6C)c5)nccn4n3)cc2)CC1 [Example D15, [8-(1-Methyl-1H-indazol-5-yl)-[1,2,4]triazolo[1,5-a]pyrazin-2-yl]-[4-(4-methyl-piperazin-1-yl)-phenyl]-amine]
IC50 (Ramos cells): 3 to 50 µM
IC50 (Syk): < 0.3 µM
IC50 (ZAP-70): 3 to 50 µM
IC50 (KDR): 0.3 to 3 µM
IC50 (Src): 0.3 to 3 µM

Compound: c1cc(-c2nccn3nc(Nc4ccc(N5CCOCC5)cc4)nc23)c2cc[nH]c2c1 [Example D10, [8-(1H-Indol-4-yl)-[1,2,4]triazolo[1,5-a]pyrazin-2-yl]-(4-morpholin-4-yl-phenyl)-amine]
IC50 (Ramos cells): 3 to 50 µM
IC50 (Syk): < 0.3 µM
IC50 (ZAP-70): 3 to 50 µM
IC50 (KDR): < 0.3 µM
IC50 (Src): < 0.3 µM

Compound: c1ccc(Nc2nc3c(-c4nccs4)nccn3n2)cc1 [Example C14, Phenyl-(8-thiazol-2-yl-[1,2,4]triazolo[1,5-a]pyrazin-2-yl)-amine]
IC50 (Syk): 3 to 50 µM
IC50 (ZAP-70): 3 to 50 µM
IC50 (BTK): 3 to 50 µM
IC50 (KDR): 3 to 50 µM
IC50 (Src): 3 to 50 µM

Compound: COc1cc(Nc2ncc(F)c(Nc3ccc4c(n3)NC(=O)C(C)(C)O4)n2)cc(OC)c1OC [Example R406]
clinical scores ([1]; orally available Syk inhibitor): significant improvement of clinical scores
serum cytokine concentrations and bone erosion [1]: significantly reduced serum cytokine concentrations, as well as bone erosion
efficacy (ACR scores) [2]: efficacy (ACR scores improvement)
tolerability [2]: good tolerability

Compound: N=C(NO)NCC[C@H](N)C(=O)O [N-hydroxy-nor-L-Arg]
tumor growth (3LL lung carcinoma): blocks growth of s.c. 3LL lung carcinoma in mice

Second part, the molecule after the results:

IC50 (GCN2): < 10 µM
Compound: Cc1cc(C)cc(Nc2nc3c(-c4cccnc4)nccn3n2)c1 [Example E6]

IC50 (GCN2): < 10 µM
Compound: c1ccc(Cn2ncc3ccc(Nc4nc5c(-c6nccs6)nccn5n4)cc32)cc1 [Example E9]

IC50 (GCN2): < 10 µM
Compound: c1ccc(Cn2ncc3ccc(Nc4nc5c(-c6ccccc6)nccn5n4)cc32)cc1 [Example E8]

IC50 (GCN2): < 10 µM
Compound: Cc1cccc(Nc2nc3c(-c4ccc(N5CCOCC5)cc4)nccn3n2)c1 [Example E4]

IC50 (GCN2): < 10 µM
Compound: Cc1cc(C)cc(Nc2nc3c(-c4ccc(N5CCOCC5)cc4)nccn3n2)c1 [Example E2]

IC50 (GCN2): < 10 µM
Compound: FC(F)(F)c1cccc(Nc2nc3c(-c4ccc(N5CCOCC5)cc4)nccn3n2)c1 [Example E3]

IC50 (GCN2): < 10 µM
Compound: COc1cc(OC)cc(-c2nccn3nc(Nc4cc(C)cc(C)c4)nc23)c1 [Example E5]

IC50 (GCN2): < 10 µM
Compound: COc1ccc(Nc2nc3c(-c4cccnc4)nccn3n2)cc1OC [Example E10]

IC50 (Ramos cells): 3 to 50 µM
IC50 (Syk): < 0.3 µM
IC50 (ZAP-70): 3 to 50 µM
IC50 (KDR): 0.3 to 3 µM
IC50 (Src): < 0.3 µM
Compound: CN1CCN(c2ccc(Nc3nc4c(-c5cnc6ccccc6c5)nccn4n3)cc2)CC1 [Example D23, [4-(4-Methyl-piperazin-1-yl)-phenyl]-(8-quinolin-3-yl-[1,2,4]triazolo[1,5-a]pyrazin-2-yl)-amine]

IC50 (GCN2): < 10 µM
Compound: Cn1ccnc1Sc1ccc(Nc2nc3c(-c4ccccc4)nccn3n2)cc1Cl [Example E7]
